Reference: PubChem BioAssay AID1963833 (Molecular Pharmacology Branch, DTP, NCI, 2024)
Several values for one entry are separate records, joined by “and”; a condition that tells them apart may be missing. Equal values may be shown once.

System: 883617-216-R-J1-PDC complex spheroid viability
Assay: Anticancer human tumor 883617-216-R-J1-PDC patient-derived bladder carcinoma cell line growth inhibition [POLQ]
Settings: for viability, T/C: stronger effect = lower value
Description: Multicellular complex tumor spheroid response to Polymerase (POL) inhibitors (novobiocin, ART-558, RP6685) in combination with a variety of drugs and investigational agents in selected tumor cell lines
The POL inhibitors (novobiocin, ART-558, and RP6685) were evaluated both individually and in combination with standard of care and investigational anticancer small molecules within a complex spheroid model of solid tumors. . Complex spheroids include a stromal component modeled by human endothelial cells (HUVEC) and fibroblasts modeled by human mesenchymal stem cells (MSCs). The concentration ranges selected for each drug and investigational agent were based upon clinically achievable concentrations if the clinical Cmax of the agent was known.
Compounds. The drugs and investigational agents: novobiocin (NSC847541), ART-558 (NSC835418), RP-6685 (NSC848927), peposertib (NSC802822), ceralasertib (NSC780249), elimusertib (NSC800525), camonsertib (NSC841442), AZD-1390 (NSC803789), olaparib (NSC753686), talazoparib (NSC767125), rucaparib (NSC756644), sotorasib (NSC818433), MRTX-1133 (NSC836407), SN-38 (NSC673596), topotecan (NSC609699), epotoside (NSC141540), doxorubicin (NSC123127), gemcitabine (NSC613327), 5-fluorouracil (NSC19893), paclitaxel (NSC125973), vemurafenib (NSC761431), MSA-2 (NSC828583), SN-011 (NSC837082), adavosertib (NSC754352), prexasertib (NSC758257), carboplatin (NSC241240) and oxaliplatin (NSC266046), were obtained from the National Cancer Institute (NCI) Developmental Therapeutics Program Chemical Repository (21). The FDA-approved anticancer drug set is available from the Developmental Therapeutics Program at https://dtp.cancer.gov/organization/dscb/obtaining/. […] The stock solutions were prepared in dimethyl sulfoxide (DMSO, Sigma-Aldrich, St. Louis, MO, cat. D2650), except for the platinum compounds which were prepared in saline (Quality Biological, Gaithersburg, MD, cat. 114-055-101), at 800-fold the tested concentration and stored at -70 degrees C prior to their use. All drugs and investigational agents were tested over a range starting from a high concentration at or near the clinical Cmax and decreasing in half-log increments. If the clinical Cmax for an agent had not been determined, the highest concentration tested was 10 microM, except for SN-38, which was tested at a high concentration of 1 microM.
Cell Culture. All cells were maintained in an incubator at 37 degrees C and 5% CO2 with 95% humidity. The PDC lines were cultured according to standard operating procedures established by the NCI PDMR (https://pdmr.cancer.gov). Table 3 of the manuscript, lists the cell lines along with the number of the three cell types plated to form the mct-spheroids and media for tumor cell growth. After thawing, all PDC lines, except 997537-175-T-J1-PDC and 415267-285-R-J2-PDC, were cultured in Matrigel-coated flasks prepared with a working solution of 1X Ham's F-12 nutrient mix, without supplementation (Thermo Fisher Scientific, cat. 11765054), 100 U/mL penicillin-streptomycin (Thermo Fisher Scientific, cat. 15140122), and 2.5% Matrigel (Corning Inc., Corning, NY, cat. 354248) for the first three passages. The two PDC lines 997537-175-T-J1-PDC and 415267-285-R-J2-PDC were cultured on uncoated flasks. The 857933-349-R-J2-PDC line was cultured in 6C/Colon 1B media containing advanced DMEM/F-12 (Thermo Fisher Scientific, cat. 12634028), 10 mM HEPES (Thermo Fisher Scientific, cat. 15630080), 1X GlutaMAX supplement (Thermo Fisher Scientific, cat. 35050061), 0.1 mg/mL primocin (InvivoGen, San Diego, CA, cat. ant-pm-2), 10% defined fetal bovine serum, heat inactivated (HyClone Laboratories Inc., Logan, UT, cat. SH30070.03HI), 50% L-WRN conditioned media (ATCC, cat. CRL-3276), 1.25 mM N-Acetyl-L-cysteine (Sigma-Aldrich, cat. A9165), 10 mM nicotinamide (Sigma-Aldrich, cat. N0636), 1X B-27 supplement (Thermo Fisher Scientific, cat. 17504044), 1X N-2 supplement (Thermo Fisher Scientific, cat. […]

[1] = compound alone, run of 01/08/2024
[2] = compound alone, run of 01/19/2024
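Note: spheroids exposed to compounds for seven days before readout.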
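Throughout, for viability, T/C: 100% = DMSO vehicle control viability.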

SMILES	viability, T/C (compound 0.0316 µM)	viability, T/C (compound 0.1 µM)	viability, T/C (compound 0.316 µM)	viability, T/C (compound 1 µM)	viability, T/C (compound 3.16 µM)	viability, T/C (compound 10 µM)	IC50 (curve of compound)	IC50 [1]	viability, T/C (compound 0.00316 µM)	viability, T/C (compound 0.01 µM)	IC50 [2]	viability, T/C (compound 0.000316 µM)	viability, T/C (compound 0.001 µM)
CNCc1ccc(-c2[nH]c3cc(F)cc4c3c2CCNC4=O)cc1	92.6% and 94.5% and 97.7%	92% and 95.6% and 100%	96.7% and 92.8% and 89.4%	96.9% and 93.2% and 104%	95.2% and 98.2% and 99.7%	77.3% and 88.2% and 74.5%	> 10 µM	–	–	–	–	–	–
COC1C(OC(N)=O)C(O)C(Oc2ccc3c(O)c(NC(=O)c4ccc(O)c(CC=C(C)C)c4)c(=O)oc3c2C)OC1(C)C (stereo unspecified)	98.8% [middle of 13 runs]	99.7% [middle of 13 runs]	–	103% [middle of 13 runs]	100% [middle of 12 runs]	–	–	> 10 µM	–	–	–	–	–
COc1cc(C2c3cc4c(cc3C(OC3OC5COC(C)OC5C(O)C3O)C3COC(=O)C23)OCO4)cc(OC)c1O (stereo unspecified)	99.9% and 95.2% and 109%	86.2% and 78.2% and 89.1%	85.3% and 96.4% and 83.7%	63.6% and 76.7% and 66.2%	61.5% and 67.9% and 60%	47.5% and 57.3% and 49.9%	8.18 µM and > 10 µM	–	–	–	–	–	–
COc1cc2cc(C(=O)CCC(=O)O)sc2cc1OC	95.8% and 105% and 103%	112% and 90% and 89.7%	91.7% and 102% and 96.7%	99.3% and 108% and 87.7%	105% and 96.4% and 83.4%	104% and 107% and 93.9%	> 10 µM	–	–	–	–	–	–
COc1ccc([C@@H](O)c2cc(-c3ncnc4cc(N5CCOCC5)ccc34)c(F)cc2Cl)nn1	99% and 86.7% and 96.3%	73% and 81.7% and 93.3%	81.5% and 83.3% and 94%	62.8% and 61.7% and 69%	48.3% and 47.9% and 48.8%	30.1% and 35.8% and 31.2%	2.61 µM and 2.43 µM and 2.72 µM	–	–	–	–	–	–
COc1cccc(OCCCN)c1-c1cc(Nc2cnc(C#N)cn2)n[nH]1	52.6% and 55.5% and 49%	40.9% and 44.4% and 45.3%	34.2% and 34.5% and 41.7%	25% and 30.4% and 35.5%	–	–	0.0406 µM and 0.057 µM and 0.0312 µM	–	98.3% and 89.8% and 106%	69.9% and 82.7% and 93.2%	–	–	–
COc1cccc2c1C(=O)c1c(O)c3c(c(O)c1C2=O)CC(O)(C(=O)CO)CC3OC1CC(N)C(O)C(C)O1 (stereo unspecified)	61.8% and 66.7% and 64%	56.7% and 69.8% and 55.9%	51.5% and 57.7% and 47.7%	10.3% and 22.2% and 5.53%	0.4% and 0.3% and 0.29%	0.27% and 0.25% and 0.3%	0.328 µM and 0.412 µM and 0.248 µM	–	–	–	–	–	–
Cc1cccc(N(C)C(=O)C2C(O)CCN2c2nc(C)cc(C(F)(F)F)c2C#N)c1 (stereo unspecified)	102% [middle of 13 runs]	–	99.2% [middle of 13 runs]	100% [middle of 13 runs]	101% [middle of 13 runs]	105% [middle of 13 runs]	–	> 10 µM	–	–	> 10 µM	–	–
Cn1ncnc1[C@H]1c2n[nH]c(=O)c3cc(F)cc(c23)N[C@@H]1c1ccc(F)cc1	70% and 80.9% and 83.5%	65.7% and 71.8% and 69.7%	–	–	–	–	> 0.1 µM	–	87.6% and 95.6% and 95.1%	83.5% and 90% and 77.4%	–	94.7% and 100% and 90.6%	85.8% and 100% and 85.9%
Nc1ccc(C#CCN(C(=O)Cc2ncc(C(F)(F)F)cc2C(F)(F)F)c2ccc(F)cc2)nn1	102% [middle of 13 runs]	98% [middle of 13 runs]	102% [middle of 13 runs]	99.9% [middle of 13 runs]	104% [middle of 13 runs]	112% [middle of 13 runs]	–	–	–	–	> 10 µM	–	–
Nc1ccn(C2OC(CO)C(O)C2(F)F)c(=O)n1 (stereo unspecified)	32.7% and 33% and 32.6%	30.6% and 36.1% and 29.3%	32.9% and 36.7% and 46.2%	39.7% and 42.4% and 33.9%	36.2% and 41.4% and 31.7%	26.8% and 42.1% and 30.9%	< 0.0316 µM	–	–	–	–	–	–
O=C(Nc1ccc(O)c(NS(=O)(=O)c2ccc(F)cc2)c1)c1ccc(-c2ccccc2)cc1	87.6% and 93.4% and 107%	107% and 88.9% and 92.8%	91.6% and 80.3% and 81.8%	89.6% and 92.9% and 90.9%	99.8% and 81.8% and 76.2%	75.6% and 74.6% and 59%	> 10 µM	–	–	–	–	–	–
O=C(c1cc(Cc2n[nH]c(=O)c3ccccc23)ccc1F)N1CCN(C(=O)C2CC2)CC1	88.1% and 93% and 83.1%	82.1% and 100% and 97.3%	92.3% and 104% and 81.8%	87.4% and 87.5% and 87.9%	91% and 82.4% and 88.4%	58.5% and 61.9% and 69.8%	> 10 µM	–	–	–	–	–	–
O=c1[nH]cc(F)c(=O)[nH]1	108% and 102% and 103%	89.4% and 107% and 89.8%	109% and 106% and 81.9%	88.9% and 89.1% and 97.6%	79.5% and 85.3% and 88.3%	65.1% and 78.3% and 64.8%	> 10 µM	–	–	–	–	–	–
